Laboratory results taken from patent US20250197374A1, “WEE1 DEGRADING COMPOUNDS AND USES THEREOF” (BRISTOL-MYERS SQUIBB COMPANY, priority 2023, published 2025).

What was measured:
Type in all cases: cell-based
WEE1 = molecular target: T1, WEE1 (Homo sapiens, UniProt P30291+Q96SW2); assay: WEE1-ePL degradation assay (293T-LentiX, InCELL Hunter luminescence, 4 hr); conditions: for 293T-LentiX WEE1-ePL Degradation 4 hr YMin (%): lower limit of fit, % of DMSO control signal remaining; for DC50: LentiX-HEK293T cells expressing WEE1-ePL, 4 hr incubation, read-out: 293T-LentiX WEE1-ePL Degradation 4 hr EC50
T1 construct: C-terminal ePL-tagged (DiscoverX, Fremont, CA) full-length WEE1 expression construct; expressed in transfected cells; host or cells: LentiX-HEK293T (Invitrogen), lentivirally transduced; the cells also over-express GSPT1-GN
T1 sequence (P30291 whole entry): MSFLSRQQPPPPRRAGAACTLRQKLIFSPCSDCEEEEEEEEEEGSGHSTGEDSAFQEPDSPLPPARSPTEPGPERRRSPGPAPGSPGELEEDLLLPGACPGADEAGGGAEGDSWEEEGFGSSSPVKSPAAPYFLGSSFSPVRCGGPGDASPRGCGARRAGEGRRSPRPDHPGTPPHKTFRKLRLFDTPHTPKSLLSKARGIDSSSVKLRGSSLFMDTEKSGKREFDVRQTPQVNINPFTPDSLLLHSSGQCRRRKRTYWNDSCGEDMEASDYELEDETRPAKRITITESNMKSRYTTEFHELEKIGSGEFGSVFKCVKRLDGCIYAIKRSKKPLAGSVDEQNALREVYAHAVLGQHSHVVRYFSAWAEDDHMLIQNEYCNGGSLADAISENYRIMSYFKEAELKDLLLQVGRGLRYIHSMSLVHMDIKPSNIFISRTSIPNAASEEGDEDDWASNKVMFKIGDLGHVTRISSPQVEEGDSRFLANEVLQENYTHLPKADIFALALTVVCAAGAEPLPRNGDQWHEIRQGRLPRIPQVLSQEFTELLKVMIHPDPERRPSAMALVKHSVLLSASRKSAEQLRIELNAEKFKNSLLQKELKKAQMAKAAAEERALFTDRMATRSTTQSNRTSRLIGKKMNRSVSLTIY
T1 sequence (Q96SW2 whole entry): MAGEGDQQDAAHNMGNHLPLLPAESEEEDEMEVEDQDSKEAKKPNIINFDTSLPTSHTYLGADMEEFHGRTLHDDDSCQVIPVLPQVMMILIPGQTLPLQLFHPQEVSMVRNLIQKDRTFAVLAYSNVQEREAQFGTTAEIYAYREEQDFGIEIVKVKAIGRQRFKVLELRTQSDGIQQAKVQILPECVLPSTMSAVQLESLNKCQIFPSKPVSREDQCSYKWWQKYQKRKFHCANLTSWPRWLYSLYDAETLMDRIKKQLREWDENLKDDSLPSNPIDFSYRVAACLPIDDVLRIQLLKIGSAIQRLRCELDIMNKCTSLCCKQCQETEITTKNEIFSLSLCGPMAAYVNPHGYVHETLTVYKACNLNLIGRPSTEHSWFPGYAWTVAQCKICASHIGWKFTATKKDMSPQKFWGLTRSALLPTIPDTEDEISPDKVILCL
T1 sequence (Q16531 whole entry partner): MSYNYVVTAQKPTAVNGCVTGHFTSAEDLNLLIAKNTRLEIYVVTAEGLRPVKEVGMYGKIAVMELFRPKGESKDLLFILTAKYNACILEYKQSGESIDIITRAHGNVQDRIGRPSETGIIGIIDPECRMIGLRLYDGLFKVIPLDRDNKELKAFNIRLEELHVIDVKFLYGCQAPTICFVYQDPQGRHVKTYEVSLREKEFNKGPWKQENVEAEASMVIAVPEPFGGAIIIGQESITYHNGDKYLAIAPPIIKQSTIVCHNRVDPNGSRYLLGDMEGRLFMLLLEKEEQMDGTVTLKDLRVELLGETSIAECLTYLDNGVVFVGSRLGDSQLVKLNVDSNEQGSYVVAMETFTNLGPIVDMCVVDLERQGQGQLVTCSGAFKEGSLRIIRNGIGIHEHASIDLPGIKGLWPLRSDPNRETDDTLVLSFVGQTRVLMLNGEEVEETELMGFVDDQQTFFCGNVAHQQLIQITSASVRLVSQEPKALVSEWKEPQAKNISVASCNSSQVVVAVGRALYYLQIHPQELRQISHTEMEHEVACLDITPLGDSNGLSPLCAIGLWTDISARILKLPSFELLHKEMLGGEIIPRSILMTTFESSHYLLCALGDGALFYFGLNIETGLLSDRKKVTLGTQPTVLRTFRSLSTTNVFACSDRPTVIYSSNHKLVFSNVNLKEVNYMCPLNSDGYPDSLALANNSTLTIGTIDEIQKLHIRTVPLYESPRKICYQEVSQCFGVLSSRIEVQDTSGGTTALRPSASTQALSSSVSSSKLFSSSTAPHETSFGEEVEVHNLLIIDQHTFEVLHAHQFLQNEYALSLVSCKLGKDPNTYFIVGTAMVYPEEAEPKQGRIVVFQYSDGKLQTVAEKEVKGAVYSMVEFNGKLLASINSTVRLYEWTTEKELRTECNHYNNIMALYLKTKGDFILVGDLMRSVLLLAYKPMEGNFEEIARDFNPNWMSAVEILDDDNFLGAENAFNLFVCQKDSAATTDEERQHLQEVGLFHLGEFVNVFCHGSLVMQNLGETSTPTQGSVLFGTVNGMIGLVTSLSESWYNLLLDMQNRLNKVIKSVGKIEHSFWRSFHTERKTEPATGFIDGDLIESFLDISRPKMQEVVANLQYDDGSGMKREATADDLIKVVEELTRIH
Method in brief: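 EC50 comes from a four-parameter logistic fit of ePL luminescence (InCELL Hunter), with DMSO control defining Ymax. Compounds ran as 10-point 3-fold dilutions from 1 or 10 µM for 4 h at 37 °C. Cells were HEK293T-LentiX with ePL-tagged full-length WEE1 and over-expressed Cereblon-resistant GSPT1-GN.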

MDA-MB-231 cells = assay: MDA-MB-231 cell proliferation assay (Cell-Titer-Glo, 120 hr); conditions: for EC50: Homo sapiens, MDA-MB-231, 120 h, read-out: MDA-MB 231 Cell Prolif. 120 hr EC50; for MDA-MB 231 Cell Prolif. 120 hr YMin (%): minimal percent of DMSO control observed
Method in brief: (§1)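 Growth inhibition was read as CellTiter-Glo luminescence after 120 h at 37 °C in RPMI/10% FBS, with 400 MKN45 or 800 MDA-MB-231 cells seeded per well. Compounds were tested in 10-point half-log series starting at 1 or 10 uM (0.1% DMSO), in triplicate for MKN45 and duplicate for MDA-MB-231. EC50 values are four-parameter fits to %DMSO control, and Ymin-obs is the minimal observed %DMSO.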

MKN45 cells = assay: MKN45 cell proliferation assay (Cell-Titer-Glo, 120 hr); conditions: for EC50: Homo sapiens, MKN-45, 120 h, read-out: MKN45 Cell Prolif. 120 hr EC50; for MKN45 Cell Prolif. 120 hr YMin (%): minimal percent of DMSO control observed
Method in brief: as §1

Row | Structure (SMILES) | 293T-LentiX WEE1-ePL Degradation 4 hr YMin (%) (WEE1) | EC50 (MDA-MB-231 cells) [nM] | MDA-MB 231 Cell Prolif. 120 hr YMin (%) (MDA-MB-231 cells) | EC50 (MKN45 cells) [nM] | MKN45 Cell Prolif. 120 hr YMin (%) (MKN45 cells) | DC50 (WEE1) [nM]
1 | COC[C@H]1CN(Cc2cc(F)c3nc(C4CCOCC4)ccc3c2)C[C@H]1Oc1ccc2c(c1)CN([C@H]1CCC(=O)NC1=O)C2=O [Example 83, (3S)-3-(5-{[(3S,4R)-1-{[8-fluoro-2-(oxan-4-yl)quinolin-6-yl]methyl}-4-(methoxymethyl)pyrrolidin-3-yl]oxy}-1-oxo-2,3-dihydro-1H-isoindol-2-yl)piperidine-2,6-dione] | 81.6 | 1120 | 87.9 | 109 | 94.8 | 
2 | COC[C@@H]1CN(Cc2ccc3nc(C4CCOC(C)(C)C4)ccc3c2)C[C@H]1Oc1ccc2c(c1)CN([C@H]1CCC(=O)NC1=O)C2=O (stereo partly drawn) [Example 84, (3S)-3-(5-{[(3S,4S)-1-{[2-(2,2-dimethyloxan-4-yl)quinolin-6-yl]methyl}-4-(methoxymethyl)pyrrolidin-3-yl]oxy}-1-oxo-2,3-dihydro-1H-isoindol-2-yl)piperidine-2,6-dione] | 30.8 | 83 | 21.0 | 1 | 10.5 | 
3 | COC[C@@H]1CN(Cc2cc(F)c3nc(N4CCN(C(C)=O)C5(CC5)C4)ncc3c2)C[C@H]1Oc1ccc2c(c1)CN([C@H]1CCC(=O)NC1=O)C2=O [Example 85, (3S)-3-(5-{[(3S,4S)-1-[(2-{4-acetyl-4,7-diazaspiro[2.5]octan-7-yl}-8-fluoroquinazolin-6-yl)methyl]-4-(methoxymethyl)pyrrolidin-3-yl]oxy}-1-oxo-2,3-dihydro-1H-isoindol-2-yl)piperidine-2,6-dione] | 27.9 | 22 | 16.6 | 1 | 11.1 | 1
4 | COC[C@@H]1CN(Cc2cc(F)c3nc(N4CCN(C(C)=O)C5(COC5)C4)ncc3c2)C[C@H]1Oc1ccc2c(c1)CN([C@H]1CCC(=O)NC1=O)C2=O [Example 86, (S)-3-(5-(((3S,4S)-1-((2-(5-acetyl-2-oxa-5,8-diazaspiro[3.5]nonan-8-yl)-8-fluoroquinazolin-6-yl)methyl)-4-(methoxymethyl)pyrrolidin-3-yl)oxy)-1-oxoisoindolin-2-yl)piperidine-2,6-dione] | 28.5 | 51 | 18.4 | 2 | 16.9 | 3
5 | COC[C@@H]1CN(Cc2cc3ccc(N4CCN(C(C)=O)C5(COC5)C4)cc3cn2)C[C@H]1Oc1ccc2c(c1)CN([C@H]1CCC(=O)NC1=O)C2=O [Example 87, (3S)-3-(5-{[(3S,4S)-1-[(7-{5-acetyl-2-oxa-5,8-diazaspiro[3.5]nonan-8-yl}isoquinolin-3-yl)methyl]-4-(methoxymethyl)pyrrolidin-3-yl]oxy}-1-oxo-2,3-dihydro-1H-isoindol-2-yl)piperidine-2,6-dione] | 32.2 | 112 | 31.8 | 7 | 9.7 | 11
6 | COC[C@@H]1CN(Cc2cc3ccc(N4CCN(C(C)=O)C5(CC5)C4)cc3cn2)C[C@H]1Oc1ccc2c(c1)CN([C@H]1CCC(=O)NC1=O)C2=O [Example 88, (3S)-3-(5-{[(3S,4S)-1-[(7-{4-acetyl-4,7-diazaspiro[2.5]octan-7-yl}isoquinolin-3-yl)methyl]-4-(methoxymethyl)pyrrolidin-3-yl]oxy}-1-oxo-2,3-dihydro-1H-isoindol-2-yl)piperidine-2,6-dione] | 28.3 | 11 | 13.1 | 1 | 9.1 | 3
7 | COC[C@@H]1CN(Cc2ccc3nc(N4CCN(C(C)=O)C5(CC5)C4)ccc3c2)C[C@H]1Oc1ccc2c(c1)CN([C@H]1CCC(=O)NC1=O)C2=O [Example 89, (3S)-3-(5-{[(3S,4S)-1-[(2-{4-acetyl-4,7-diazaspiro[2.5]octan-7-yl}quinolin-6-yl)methyl]-4-(methoxymethyl)pyrrolidin-3-yl]oxy}-1-oxo-2,3-dihydro-1H-isoindol-2-yl)piperidine-2,6-dione] | 30.2 | 9 | 16.8 | 1 | 8.4 | 1
8 | COC[C@@H]1CN(Cc2ccc3nc(N4CCN(C(C)=O)C5(COC5)C4)ccc3c2)C[C@H]1Oc1ccc2c(c1)CN([C@H]1CCC(=O)NC1=O)C2=O [Example 90, (3S)-3-(5-{[(3S,4S)-1-[(2-{5-acetyl-2-oxa-5,8-diazaspiro[3.5]nonan-8-yl}quinolin-6-yl)methyl]-4-(methoxymethyl)pyrrolidin-3-yl]oxy}-1-oxo-2,3-dihydro-1H-isoindol-2-yl)piperidine-2,6-dione] | 21.0 | 42 | 27.2 | 2 | 6.4 | 1
9 | COC[C@@H]1CN(Cc2cc(F)c3nc(C4CCOC(C)(C)C4)ncc3c2)C[C@H]1Oc1ccc2c(c1)CN([C@H]1CCC(=O)NC1=O)C2=O (stereo partly drawn) [Example 91, (3S)-3-(5-{[(3S,4S)-1-{[2-(2,2-dimethyloxan-4-yl)-8-fluoroquinazolin-6-yl]methyl}-4-(methoxymethyl)pyrrolidin-3-yl]oxy}-1-oxo-2,3-dihydro-1H-isoindol-2-yl)piperidine-2,6-dione] | 27.1 | 105 | 9.6 | 2 | 10.5 | 4
10 | COC[C@@H]1CN(Cc2cc(F)c3nc(N4CCN(C(C)=O)C5(CC5)C4)ccc3c2)C[C@H]1Oc1ccc2c(c1)CN([C@H]1CCC(=O)NC1=O)C2=O [Example 92, (3S)-3-(5-{[(3S,4S)-1-[(2-{4-acetyl-4,7-diazaspiro[2.5]octan-7-yl}-8-fluoroquinolin-6-yl)methyl]-4-(methoxymethyl)pyrrolidin-3-yl]oxy}-1-oxo-2,3-dihydro-1H-isoindol-2-yl)piperidine-2,6-dione] | 28.7 | 14 | 21.4 | 1 | 10.9 | 1
11 | COC[C@@H]1CN(Cc2cc(F)c3nc(N4CCN(C(C)=O)C5(COC5)C4)ccc3c2)C[C@H]1Oc1ccc2c(c1)CN([C@H]1CCC(=O)NC1=O)C2=O [Example 93, (3S)-3-(5-{[(3S,4S)-1-[(2-{5-acetyl-2-oxa-5,8-diazaspiro[3.5]nonan-8-yl}-8-fluoroquinolin-6-yl)methyl]-4-(methoxymethyl)pyrrolidin-3-yl]oxy}-1-oxo-2,3-dihydro-1H-isoindol-2-yl)piperidine-2,6-dione] | 21.9 | 69 | 52.5 | 1 | 7.9 | 1
12 | COC[C@@H]1CN(Cc2ccc3nc(N4CCN(C(C)=O)C5(CC5)C4)ncc3c2)C[C@H]1Oc1ccc2c(c1)CN([C@H]1CCC(=O)NC1=O)C2=O [Example 94, (3S)-3-(5-{[(3S,4S)-1-[(2-{4-acetyl-4,7-diazaspiro[2.5]octan-7-yl}quinazolin-6-yl)methyl]-4-(methoxymethyl)pyrrolidin-3-yl]oxy}-1-oxo-2,3-dihydro-1H-isoindol-2-yl)piperidine-2,6-dione] | 26.4 | 16 | 16.0 | 2 | 8.5 | 1
13 | COC[C@@H]1CN(Cc2ccc3cc(N4CCOCC4)cnc3c2)C[C@H]1Oc1ccc2c(c1)CN([C@H]1CCC(=O)NC1=O)C2=O [Example 102, (3S)-3-(5-{[(3S,4S)-4-(methoxymethyl)-1-{[3-(morpholin-4-yl)quinolin-7-yl]methyl}pyrrolidin-3-yl]oxy}-1-oxo-2,3-dihydro-1H-isoindol-2-yl)piperidine-2,6-dione] | 43.7 | 1020 | 90.7 | 145 | 49.6 | 3
14 | COC[C@@H]1CN(Cc2cc(F)c3cc(N4CCOCC4)cnc3c2)C[C@H]1Oc1ccc2c(c1)CN([C@H]1CCC(=O)NC1=O)C2=O [Example 103, (3S)-3-(5-{[(3S,4S)-1-{[5-fluoro-3-(morpholin-4-yl)quinolin-7-yl]methyl}-4-(methoxymethyl)pyrrolidin-3-yl]oxy}-1-oxo-2,3-dihydro-1H-isoindol-2-yl)piperidine-2,6-dione] | 32.3 | 5 | 82.3 | 29 | 28.5 | 1
